Data: patent US10668039B2, “Methods for treatment of adenoid cystic carcinoma” (THE CHILDREN'S MEDICAL CENTER CORPORATION, priority 2016, dated 2020)
Entries after “also recorded” stand apart in the source; their conditions may differ.

Legend:
c-myb [1] = assay: qPCR of sorted c-myb:GFP zebrafish embryo cells; format: cell-based; conditions: sorted c-myb:GFP cells from 72 hpf embryos, 1 μM, 6 hours
Method: RA dose response experiments were plated similarly in LDF medium with the appropriate RA concentration. Sorted c-myb:GFP+ cells were collected from 72 hpf transgenic embryos that were homogenized: embryos were finely chopped and dissociated using Liberase (Roche), cell suspensions were filtered, and 58,000 GFP+ live cells were collected using a FACS Aria cell sorter (BD Biosciences). Cells were cultured for 6 hours in LDF medium, and then collected for qPCR.
(§1) Quantitative PCR: Total RNA from cells was extracted using Qiagen RNeasy Mini Kit, and random primed cDNA was generated (Invitrogen, SuperScript III First-Strand Synthesis System). The SsoFast EvaGreen (Biorad) method was used to quantify cDNAs of interest, which are represented as the fold change in transcript level. The amount of cDNA starting material for each sample was normalized in relation to species-specific β-actin expression for zebrafish samples, and both gapdh and β-actin expression for human samples. The primer sequences used were zebrafish myb: forward, 5′-[…]-3′ (SEQ ID No:1), reverse, 5′-[…]-3′ (SEQ ID No:2); zebrafish β-actin: forward, 5′-[…]-3′ (SEQ ID No:3), reverse, 5′-[…]-3′ (SEQ ID No:4); human myb: forward, 5′-[…]-3′ (SEQ ID No:5), reverse, 5′-[…]-3′ (SEQ ID No:6); human gapdh: forward, 5′-[…]-3′ (SEQ ID No:7), reverse, 5′-[…]-3′ (SEQ ID No:8); human β-actin: forward, 5′-[…]-3′ (SEQ ID No:9), reverse, 5′-[…]-3′ (SEQ ID No:10).
Zebrafish quantitative PCR analysis: Stage-matched 72 hpf c-myb:GFP transgenic embryos were finely chopped and dissociated using Liberase (Roche). GFP+ cells were collected using a FACS Aria cell sorter (BD Biosciences). Sorted cells were resuspended in zebrafish blastomere media and plated with 1 μM retinoic acid agonists for 6 hours. Cells were then collected and RNA was isolated using the RNeasy Micro Plus Kit (Qiagen) as per the manufacturer's instructions. cDNA was synthesized using the SuperScript III Kit (Life Technologies). Quantitative PCR was performed in triplicate on a BioRad iQ5 real-time PCR machine using Ssofast EvaGreen Supermix (BioRad). Samples were normalized to β-actin gene. Zebrafish primers used (forward and reverse respectively): actin, 5′-[…]-3′ (SEQ ID No:3) and 5′-[…] -3′ (SEQ ID No:4); c-myb, 5′-[…]-3′ (SEQ ID No:1) and 5′-[…]-3′ (SEQ ID No:2); mpx, 5′-[…]-3′ (SEQ ID No:11) and 5′-[…]-3′ (SEQ ID No:12); GFP, 5′-[…]-3′ (SEQ ID No:13) and 5′-[…]-3′ (SEQ ID No:14).

c-myb [2] = assay: U937 time course qPCR of c-myb; format: cell-based, human; conditions: for myb levels in U937 by qPCR: 1 μM, 6, 24 and 48 hours
Method: Cell culture: U937 cells were grown in RPMI 1640 (Life Technologies), 10% heat inactivated FBS, and 1% Penicillin-Streptomycin (Invitrogen). CellTiter-Glo Luminescent Cell Viability Assay (Promega) was performed as per manufacturer's instructions. Cell viability was assessed at day 2.
as §1
U937 time course quantitative PCR analysis: U937 cells were plated with 1 μM retinoic acid agonists for the duration indicated. Cells were then collected and RNA was isolated using the RNeasy Plus Mini Kit (Qiagen) as per the manufacturer's instructions. Further processing was done as described in the section above. Samples were normalized to β-actin gene. Human primers used (forward and reverse respectively): actin, 5′-[…]-3′ (SEQ ID No:9) and 5′-[…]-3′ (SEQ ID No:10); c-myb, 5′-[…]-3′ (SEQ ID No:5) and 5′-[…]-3′ (SEQ ID No:6).

c-myb:GFP = c-myb:GFP zebrafish blastomere embryo culture chemical screen; format: cell-based; conditions: approximately 30 μM, 2 days
Method: The inventors have developed an embryo culture system in which embryos bearing a c-myb:GFP transgenic reporter were dissociated during sphere stage at 4 hours post fertilization (hpf), and cultured in gelatin-coated 384 well plates with chemicals for 2 days until imaging for fluorescent reporter activity (FIG. 1). This fluorescent transgene is expressed in a similar pattern to the endogenous gene. […] This transgene responds to inducers of hematopoiesis, as myb is a marker of hematopoietic stem cells (HSCs).
The image analysis software (ImageJ and MatLab) was used to identify hits that downregulate c-myb:GFP zebrafish embryo cultures by a z-score less than […] and more than 70% downregulation. Hits were assessed by eye and scored for morphology. Toxic compounds that caused poor embryoid body (EB) formation were assessed a 4.
Zebrafish cell culture: Zebrafish embryo cultures were adapted from Xu (2013). Dissociated blastomere cells were grown in medium composed of 85% LDF medium, 5% heat inactivated FBS, and 10% zebrafish day 1 embryo extract. LDF medium contains 50% Leibowitz's L-15 (Invitrogen), 20% DMEM (Invitrogen), and 30% DMEM/F-12 (Invitrogen), supplemented with 0.018% sodium bicarbonate, 15 mM HEPES (Invitrogen), 1% L-Glutamine (Invitrogen), 10 nM sodium selenite (Sigma-Aldrich), 1% N2 (Invitrogen), 2% B27 (Invitrogen), 1% Penicillin-Streptomycin (Invitrogen), and 0.2% Primocin (InvivoGen).
Screening procedures: Two 384-well plates were coated with 0.1% gelatin for each chemical library plate. Males of the c-myb:GFP transgenic line were set up overnight with casper females and kept separated until morning when they were mixed for mating. Embryos were washed twice with E3 embryo water and treated with pronase to remove chorions. Dechorionated embryos were washed with E3 embryo water and collected into tubes containing media. Embryos were disassociated by shaking ˜10 times and were filtered through a 40 μm nylon mesh filter. Resulting single cells were diluted with medium and aliquoted 30 μl per well into the 384-well plates at approximately 2 embryo equivalents per well. Chemicals were dispensed immediately afterwards with an Agilent Bravo robot. Chemicals from the libraries were diluted 300 times with LDF medium and were aliquoted 10 μl per well for a final concentration of approximately 33 μM. […] Cells were cultured in a 28° C. incubator with 5% CO2. Two days later, cells were imaged by a Yokogawa Cell Voyager 7000 imager. Images were analyzed by ImageJ and MatLab and confirmed by eye. […]
Culture of dissociated blastomere cells: Stage-matched zebrafish blastomeres were dissociated at 4 hpf and grown in medium composed of 85% LDF medium, 5% FBS, and 10% embryo extract. LDF medium contains 50% Leibowitz's L-15 (Invitrogen), 20% DMEM (Invitrogen), and 30% DMEM/F-12 (Invitrogen), supplemented with 2% B27 (Gibco), 15 mM HEPES (Gibco), 1% L-glutamine (Gibco), 1% N2 (Gibco), 10 nM sodium selenite (Sigma), 100 ug/mL piperacillin (Sigma), 10 ug/mL ciprofloxacin (GenHunter), and 0.018% sodium bicarbonate (Gibco). Embryo extract was made by homogenizing 24 hpf wildtype AB embryos in HBSS (Gibco).

[3] = Table 2, c-myb:GFP embryo cultures, average across two plates
[4] = Table 3, GFP signal in blastomere embryo culture screen

| Compound | endogenous myb levels by qPCR (c-myb [1]) | myb levels in U937 by qPCR (c-myb [2]) | time to downregulation of c-myb expression (c-myb [2]; U937 cells, 1 μM ATRA) [h] | Z-Score (c-myb:GFP; [3]) | Z-Score (c-myb:GFP; [4]) | myb levels in U937 by qPCR (c-myb [2]; listed as RA p-hydroxyanilide) |
| --- | --- | --- | --- | --- | --- | --- |
| CC(C=CC1=C(C)CCCC1(C)C)=CC=C/C(C)=C/C(=O)O [ATRA, (E)-3,7-dimethyl-9-(2,6,6-trimethyl-1-cyclo-hexen-1-yl)-2,4,6,8-nonatetraenoic acid] | significantly downregulate | significantly downregulate; also recorded: reduction | ≤ 3 | −5.729 | −5.729 | – |
| CC1=C(/C=C/C(C)=C/C=C/C(C)=C/C(=O)Nc2ccc(O)cc2)C(C)(C)CCC1 [Fenretinide, retinoic acid p-hydroxyanilide] | significantly downregulate | reduction | – | −1.582 | −1.582 | significantly downregulate |
| CC1=C(/C=C/C(C)=C/C=C/C(C)=C\C(=O)O)C(C)(C)CCC1 [Isotretinoin, 13-cis-retinoic acid] | significantly downregulate | significantly downregulate; also recorded: reduction | – | −5.054 | −5.054 | – |
